In patent US10457642B2, “211-astatine containing radiotherapeutics for the treatment of cancer” (The Trustees of The University of Pennsylvania, priority 2015, dated 2019):
Values joined by “and” are separate entries in the source; they are usually repeats but may differ in a detail not shown here. Equal entries are not always repeated. Where two headings read alike, the source gives them in different places.

Tests used:
[1] = biological target: T1, sigma-2 receptor (Homo sapiens, UniProt Q5BJF2); assay: In vitro live cellular binding studies in MDA-MB-231 breast cancer cells; conditions: MDA-MB-231 cells
T1 construct: was evaluated in MDA-MB-231 breast cancer cells (ATCC-HTB-26) known to have high sigma-2 receptor density; host or cells: MDA-MB-231 (living, plated cells)
Description: MDA-MB-231 were cultured in Minimum Essential Media (MEM) with added nutrients, 10% fetal bovine serum (FBS) and 1% penicillin/streptomycin at 5% CO2 and 37° C. Twenty-four hours before assay cells were plated at 50,000 cell/well in 96-well format. Two solutions of freshly synthesized radioligand were diluted to a concentration of approximately 2,000 cpm/μL in phosphate buffered saline with calcium and magnesium (PBS w/ Ca^2+ and Mg^2+), with and without non-radioactive 100 μM of the standard to determine non-specific binding. […] Total volume of treatment in each well was 50 μL. PBS w/ Ca^2+ and Mg^2+ without substrate was added to the last row of wells and was used for protein quantification at the end of the experiment. Treatment was removed at time points over the course of 2 h (n=4/time point). At each time of treatment removal, wells were washed with PBS×3. At the end of the experiment wells were counted on an automatic gamma counter using a custom protocol with an energy window of 70-110 KeV (Wizard™ 2470, Perkin Elmer, Waltham Mass.). Protein quantification was performed using a modified Lowry method. Independent experiments were repeated in triplicate. One-phase association kinetics were modeled using Prism™ software version 6.0 (La Holla, Calif.).

[2] = Description: Tumors were grown by subcutaneously injecting 1×10^6 EMT-6 mouse breast cancer cells (ATCC #CRL-2755) into the flanks of female BALB/c mice (Taconic). Tumors were an appropriate size of approximately 200 mm^3 after 14 days of growth. On the day of experiment 10 μCi of newly synthesized ^211At—N-(6,7-dimethoxy-3,4-dihydroisoquinolin-2(1H)-yl)butyl)-2,3-dimethoxybenzamide in saline (ethanol<5%) was administered intravenously to mice under isoflurane anesthesia. Mice were sacrificed by cervical dislocation followed by immediate cardiac puncture post administration at time points of 5 min, 1, 2, 4, 8, and 24 h (n=4 mice/time point). Tissue harvested included; blood, heart, muscle, lung, kidney, pancreas, spleen, liver, skin, brain, thyroid, stomach and EMT-6 tumor. Tissues were weighed and counted on an automatic gamma counter as previously described. All animal experiments were conducted under IACUC-approved protocols compliant with University of Pennsylvania guidelines for the care and use of research animals.
[3] = in vivo; cited from earlier work

T1 sequence (Q5BJF2 whole entry): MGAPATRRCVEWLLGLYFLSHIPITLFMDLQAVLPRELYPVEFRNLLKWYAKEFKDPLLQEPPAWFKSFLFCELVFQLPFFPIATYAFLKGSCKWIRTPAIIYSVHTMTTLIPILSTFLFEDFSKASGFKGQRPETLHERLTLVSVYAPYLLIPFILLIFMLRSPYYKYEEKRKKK

COc1cc2c(cc1OC)CN(CCCCNC(=O)c1cc([211At])cc(OC)c1OC)CC2 [^211At—N-(6,7-dimethoxy-3,4-dihydroisoquinolin-2(1H)-yl)butyl)-2,3-dimethoxybenzamide]
reduction in total binding through the addition of the standard ([1]; +100 μM non-radioactive standard): 80% | time of 50% maximal binding (T1/2) ([1]; one-phase association): 12.51 min | Decay corrected biodistribution, Blood ([2]; 5 min after i.v.): 4.06 ± 0.19 % ID/g | Decay corrected biodistribution, Blood ([2]; 1 h after i.v.): 2.12 ± 0.15 % ID/g | Decay corrected biodistribution, Blood ([2]; 2 h after i.v.): 2.43 ± 0.82 % ID/g | Decay corrected biodistribution, Blood ([2]; 4 h after i.v.): 1.64 ± 0.11 % ID/g | Decay corrected biodistribution, Blood ([2]; 8 h after i.v.): 1.82 ± 0.10 % ID/g | Decay corrected biodistribution, Blood ([2]; 24 h after i.v.): 0.44 ± 0.10 % ID/g | Decay corrected biodistribution, Brain ([2]; 5 min after i.v.): 1.95 ± 0.14 % ID/g | Decay corrected biodistribution, Brain ([2]; 1 h after i.v.): 0.46 ± 0.08 % ID/g | Decay corrected biodistribution, Brain ([2]; 2 h after i.v.): 0.39 ± 0.01 % ID/g | Decay corrected biodistribution, Brain ([2]; 4 h after i.v.): 0.21 ± 0.02 % ID/g | Decay corrected biodistribution, Brain ([2]; 8 h after i.v.): 0.25 ± 0.02 % ID/g | Decay corrected biodistribution, Brain ([2]; 24 h after i.v.): 0.07 ± 0.02 % ID/g | retention of radioactivity in the tumor, time post administration ([2]; EMT-6 tumor): 1 to 8 h | Decay corrected biodistribution, Tumor ([2]; EMT-6 tumor, 5 min after i.v.): 0.74 ± 0.07 % ID/g | Decay corrected biodistribution, Tumor ([2]; EMT-6 tumor, 1 h after i.v.): 4.40 ± 0.15 % ID/g | Decay corrected biodistribution, Tumor ([2]; EMT-6 tumor, 2 h after i.v.): 4.93 ± 0.78 % ID/g | Decay corrected biodistribution, Tumor ([2]; EMT-6 tumor, 4 h after i.v.): 5.05 ± 0.68 % ID/g | Decay corrected biodistribution, Tumor ([2]; EMT-6 tumor, 8 h after i.v.): 5.11 ± 0.09 % ID/g | Decay corrected biodistribution, Tumor ([2]; EMT-6 tumor, 24 h after i.v.): 1.34 ± 0.37 % ID/g | Tumor accumulation ([2]; EMT-6 tumor, from 1 h to at least 8 h): above 4 % ID/g | Decay corrected biodistribution, Heart ([2]; 5 min after i.v.): 10.2 ± 0.82 % ID/g | Decay corrected biodistribution, Heart ([2]; 1 h after i.v.): 5.16 ± 1.21 % ID/g | Decay corrected biodistribution, Heart ([2]; 2 h after i.v.): 4.70 ± 0.31 % ID/g | Decay corrected biodistribution, Heart ([2]; 4 h after i.v.): 3.54 ± 0.17 % ID/g | Decay corrected biodistribution, Heart ([2]; 8 h after i.v.): 4.01 ± 0.29 % ID/g | Decay corrected biodistribution, Heart ([2]; 24 h after i.v.): 1.14 ± 0.27 % ID/g | Decay corrected biodistribution, Kidney ([2]; 5 min after i.v.): 47.7 % ID/g and 47.7 ± 2.32 % ID/g | Decay corrected biodistribution, Kidney ([2]; 1 h after i.v.): 5.83 % ID/g and 5.83 ± 0.53 % ID/g | Decay corrected biodistribution, Kidney ([2]; 2 h after i.v.): 5.59 ± 0.35 % ID/g | Decay corrected biodistribution, Kidney ([2]; 4 h after i.v.): 2.97 ± 0.13 % ID/g | Decay corrected biodistribution, Kidney ([2]; 8 h after i.v.): 3.24 ± 0.21 % ID/g | Decay corrected biodistribution, Kidney ([2]; 24 h after i.v.): 1.05 ± 0.23 % ID/g | Decay corrected biodistribution, Liver ([2]; 5 min after i.v.): 18.1 ± 2.11 % ID/g | Decay corrected biodistribution, Liver ([2]; 1 h after i.v.): 6.39 ± 3.27 % ID/g | Decay corrected biodistribution, Liver ([2]; 2 h after i.v.): 4.63 ± 1.01 % ID/g | Decay corrected biodistribution, Liver ([2]; 4 h after i.v.): 1.87 ± 0.17 % ID/g | Decay corrected biodistribution, Liver ([2]; 8 h after i.v.): 1.86 ± 0.19 % ID/g | Decay corrected biodistribution, Liver ([2]; 24 h after i.v.): 0.59 ± 0.20 % ID/g | Decay corrected biodistribution, Lung ([2]; 5 min after i.v.): 20.2 ± 1.39 % ID/g | Decay corrected biodistribution, Lung ([2]; 1 h after i.v.): 7.14 ± 1.03 % ID/g | Decay corrected biodistribution, Lung ([2]; 2 h after i.v.): 6.42 ± 0.39 % ID/g | Decay corrected biodistribution, Lung ([2]; 4 h after i.v.): 5.74 ± 0.53 % ID/g | Decay corrected biodistribution, Lung ([2]; 8 h after i.v.): 6.23 ± 0.57 % ID/g | Decay corrected biodistribution, Lung ([2]; 24 h after i.v.): 2.21 ± 0.40 % ID/g | Decay corrected biodistribution, Muscle ([2]; 5 min after i.v.): 0.69 ± 0.16 % ID/g | Decay corrected biodistribution, Muscle ([2]; 1 h after i.v.): 1.24 ± 0.18 % ID/g | Decay corrected biodistribution, Muscle ([2]; 2 h after i.v.): 1.15 ± 0.07 % ID/g | Decay corrected biodistribution, Muscle ([2]; 4 h after i.v.): 0.56 ± 0.03 % ID/g | Decay corrected biodistribution, Muscle ([2]; 8 h after i.v.): 0.61 ± 0.04 % ID/g | Decay corrected biodistribution, Muscle ([2]; 24 h after i.v.): 0.19 ± 0.01 % ID/g | Decay corrected biodistribution, Pancreas ([2]; 5 min after i.v.): 8.81 ± 1.21 % ID/g | Decay corrected biodistribution, Pancreas ([2]; 1 h after i.v.): 18.1 ± 1.60 % ID/g | Decay corrected biodistribution, Pancreas ([2]; 2 h after i.v.): 18.0 ± 1.65 % ID/g | Decay corrected biodistribution, Pancreas ([2]; 4 h after i.v.): 26.3 ± 2.11 % ID/g | Decay corrected biodistribution, Pancreas ([2]; 8 h after i.v.): 21.1 ± 2.35 % ID/g | Decay corrected biodistribution, Pancreas ([2]; 24 h after i.v.): 5.78 ± 0.89 % ID/g | Decay corrected biodistribution, Skin ([2]; 5 min after i.v.): 0.58 ± 0.05 % ID/g | Decay corrected biodistribution, Skin ([2]; 1 h after i.v.): 2.30 ± 0.23 % ID/g | Decay corrected biodistribution, Skin ([2]; 2 h after i.v.): 2.66 ± 0.30 % ID/g | Decay corrected biodistribution, Skin ([2]; 4 h after i.v.): 1.79 ± 0.15 % ID/g | Decay corrected biodistribution, Skin ([2]; 8 h after i.v.): 2.10 ± 0.42 % ID/g | Decay corrected biodistribution, Skin ([2]; 24 h after i.v.): 0.85 ± 0.08 % ID/g | Decay corrected biodistribution, Spleen ([2]; 5 min after i.v.): 8.41 ± 2.67 % ID/g | Decay corrected biodistribution, Spleen ([2]; 1 h after i.v.): 13.2 ± 2.76 % ID/g | Decay corrected biodistribution, Spleen ([2]; 2 h after i.v.): 12.0 ± 1.47 % ID/g | Decay corrected biodistribution, Spleen ([2]; 4 h after i.v.): 7.59 ± 0.49 % ID/g | Decay corrected biodistribution, Spleen ([2]; 8 h after i.v.): 7.49 ± 1.38 % ID/g | Decay corrected biodistribution, Spleen ([2]; 24 h after i.v.): 2.14 ± 1.02 % ID/g | Decay corrected biodistribution, Stomach ([2]; 5 min after i.v.): 5.87 ± 1.12 % ID/g | Decay corrected biodistribution, Stomach ([2]; 1 h after i.v.): 15.9 ± 2.53 % ID/g | Decay corrected biodistribution, Stomach ([2]; 2 h after i.v.): 16.3 ± 2.29 % ID/g | Decay corrected biodistribution, Stomach ([2]; 4 h after i.v.): 19.7 ± 1.79 % ID/g | Decay corrected biodistribution, Stomach ([2]; 8 h after i.v.): 28.2 ± 7.21 % ID/g | Decay corrected biodistribution, Stomach ([2]; 24 h after i.v.): 9.88 ± 1.62 % ID/g | Decay corrected biodistribution, Thyroid ([2]; 5 min after i.v.): 5.87 ± 0.85 % ID/g | Decay corrected biodistribution, Thyroid ([2]; 1 h after i.v.): 11.6 ± 1.01 % ID/g | Decay corrected biodistribution, Thyroid ([2]; 2 h after i.v.): 18.3 ± 6.12 % ID/g | Decay corrected biodistribution, Thyroid ([2]; 4 h after i.v.): 14.0 ± 4.26 % ID/g | Decay corrected biodistribution, Thyroid ([2]; 8 h after i.v.): 13.3 ± 2.96 % ID/g | Decay corrected biodistribution, Thyroid ([2]; 24 h after i.v.): 4.87 ± 1.15 % ID/g | maximal tumor to muscle ratio ([2]; at 4 h): 9.02

COc1cc2c(cc1OC)CN(CCCCNC(=O)c1cc(I)cc(OC)c1OC)CC2 [iodinated sigma-2 ligand standard, 5-iodo-N-(4-(6,7-dimethoxy-3,4-dihydroisoquinolin-2(1H)-yl)butyl)-2,3-dimethoxybenzamide]
tumor uptake [3]: 2 % ID/g
